From ChEMBL document CHEMBL4483862, “Open-source discovery of chemical leads for next-generation chemoprotective antimalarials” (2018)

Test system: Plasmodium berghei
Experiment: Luciferase/luciferin-expressing antifolate-resistant parasites were used to infect a culture of HepG2 cells that were pre-incubated with compounds. Infected hepatocytes emit light due to the luciferase reaction. Assay results are presented as the percent inhibition of light emission compared to control. […]
Assay type: functional
Details: sporozoite; for IC90: read-out: LUCIFERASE INFECTION ASSAY - IC90
[1] = read-out: LUCIFERASE INFECTION ASSAY - IC50

Row | Compound | IC90 [µM] | IC50 [1] [µM] | further results
1 | O=C(Nc1ccccc1)Nc1ccc(Sc2cccs2)cc1 | 8.94 |  | IC50 (HEPG2TOX_HILL_SLOPE 12.6, HEPG2TOX_R_SQUARED 0.73, PBLUC_HILL_SLOPE 4.46, PBLUC_R_SQUARED 0.693, read-out: LUCIFERASE INFECTION ASSAY - IC50): 5.46 µM
2 | CC1CCC(NC(=O)[C@H](Cc2ccccc2)NC(=O)C(c2ccccc2)c2ccccc2)CC1 (stereo partly drawn) | > 10 |  | IC50 (PBLUC_HILL_SLOPE 2.1, PBLUC_R_SQUARED 0.545, read-out: LUCIFERASE INFECTION ASSAY - IC50): 4.82 µM
3 | Cc1sc2nc(CSc3ccc([N+](=O)[O-])c(C(F)(F)F)c3)nc(O)c2c1C | 8.65 |  | IC50 (HEPG2TOX_HILL_SLOPE 3.24, HEPG2TOX_R_SQUARED 0.988, PBLUC_HILL_SLOPE 5.99, PBLUC_R_SQUARED 0.334, read-out: LUCIFERASE INFECTION ASSAY - IC50): 5.99 µM
4 | CCOC(=O)c1c(S(=O)(=O)Nc2ccc(C(C)(C)C)cc2)c(-c2ccccc2)n(-c2ccccc2)c1C | 5.19 |  | IC50 (FFLUC_HILL_SLOPE 2.33, FFLUC_R_SQUARED 0.844, HEPG2TOX_HILL_SLOPE 0.337, HEPG2TOX_R_SQUARED 0.667, PBLUC_HILL_SLOPE 4.65, PBLUC_R_SQUARED 0.51, read-out: LUCIFERASE INFECTION ASSAY - IC50): 3.23 µM
5 | CN(c1ccccc1)S(=O)(=O)c1cccc(NC(=O)Nc2ccccc2[N+](=O)[O-])c1 | > 10 | > 10 | 
6 | Cc1cc(Br)c(NC(=S)NC(=O)C(C)(C)C)c(Br)c1 | > 8.09 |  | IC50 (HEPG2TOX_HILL_SLOPE 2.38, HEPG2TOX_R_SQUARED 0.209, read-out: LUCIFERASE INFECTION ASSAY - IC50): > 8.09 µM
7 | Cc1cc(C(=O)Cn2c(CO)nc3ccccc32)c(C)n1Cc1ccco1 | > 10 |  | IC50 (HEPG2TOX_HILL_SLOPE 21, HEPG2TOX_R_SQUARED 0.739, PBLUC_HILL_SLOPE 1.98, PBLUC_R_SQUARED 0.61, read-out: LUCIFERASE INFECTION ASSAY - IC50): 3.71 µM
8 | Cn1c(Nc2ccccc2)nc2cnc(-c3ccc4c(c3)OCO4)cc21 | > 10 | > 10 | 
9 | CC(NC(=O)Cn1c2ccccc2c(=O)c2ccccc21)c1cc2ccccc2o1 (stereo not drawn) | > 10 | 6.06 | 
10 | O=C(Nc1ccc(F)c(Cl)c1)c1cc2ccccc2s1 | > 10.8 | > 10.8 | 
11 | Cc1cccc(C=C(C(=O)NC(C)c2ccccc2)C(=O)NC(C)c2ccccc2)c1 (stereo not drawn) | 8.3 |  | IC50 (HEPG2TOX_HILL_SLOPE 105, HEPG2TOX_R_SQUARED 0.565, PBLUC_HILL_SLOPE 4.68, PBLUC_R_SQUARED 0.0675, read-out: LUCIFERASE INFECTION ASSAY - IC50): 5.19 µM
12 | CC(=O)N1C=Cc2ccccc2C1CC(=O)Nc1ccc(Cl)c(S(=O)(=O)N2CCCC2)c1 (stereo not drawn) | > 10 | > 10 | 
13 | Cc1ccc(NNC(=O)c2cc3ccccc3o2)cc1Cl | > 10 |  | IC50 (PBLUC_HILL_SLOPE 2.35, PBLUC_R_SQUARED 0.383, read-out: LUCIFERASE INFECTION ASSAY - IC50): 6.24 µM
14 | COc1ccc(OC)c(S(=O)(=O)N2[C@@H]3CC[C@@H](C3)[C@H]2c2nc3cccc(OCc4ccc(F)cc4)c3[nH]2)c1 | > 10 | > 10 | 
15 | Cc1cc(C)c(C(=O)CSc2cc(C)c3cccc(C)c3n2)c(C)c1 | > 10 |  | IC50 (FFLUC_HILL_SLOPE 3.04, FFLUC_R_SQUARED 0.417, HEPG2TOX_HILL_SLOPE 2.16, HEPG2TOX_R_SQUARED 0.191, read-out: LUCIFERASE INFECTION ASSAY - IC50): > 10 µM
16 | CC(C)(Oc1ccc(Cl)cc1)C(=O)Nc1ccc(F)c(S(=O)(=O)N2CCOCC2)c1 | > 10 | > 10 | 
17 | COc1cc(OC)cc(-c2cn3c(-c4ccc5c(ccn5C)c4)cnc3cn2)c1 | 0.163 |  | IC50 (HEPG2TOX_HILL_SLOPE 3.11, HEPG2TOX_R_SQUARED 0.612, PBLUC_HILL_SLOPE 2.08, PBLUC_R_SQUARED 0.748, read-out: LUCIFERASE INFECTION ASSAY - IC50): 0.0568 µM
18 | CC(C)(C)c1ccc(Oc2ccc(N)cn2)cc1 [LIMANTRAFIN] | > 13.6 |  | IC50 (PBLUC_HILL_SLOPE 0.71, PBLUC_R_SQUARED 0.895, read-out: LUCIFERASE INFECTION ASSAY - IC50): 1.19 µM
19 | COc1ccc(/C=C2\C(=O)/C(=C/c3ccc(OC)c(O)c3)c3ccccc32)cc1O | 3.46 |  | IC50 (HEPG2TOX_HILL_SLOPE 2.67, HEPG2TOX_R_SQUARED 0.974, PBLUC_HILL_SLOPE 3.5, PBLUC_R_SQUARED 0.766, read-out: LUCIFERASE INFECTION ASSAY - IC50): 1.85 µM
20 | COCCCNc1nccc2nc(-c3cccc(C(C)C)c3)[nH]c12 | > 10 |  | IC50 (HEPG2TOX_HILL_SLOPE 0.453, HEPG2TOX_R_SQUARED 0.728, PBLUC_HILL_SLOPE 2.13, PBLUC_R_SQUARED 0.522, read-out: LUCIFERASE INFECTION ASSAY - IC50): 4.47 µM
21 | O=C(Nc1ccc(CNc2ncnc3cc(Cl)ccc23)cc1)C1CC1 | 1.46 | 0.544 | 
22 | Clc1ccc(-c2cnc3cnc(-c4cccnc4)cn23)cc1 | 1.8 |  | IC50 (HEPG2TOX_HILL_SLOPE 2.16, HEPG2TOX_R_SQUARED 0.901, PBLUC_HILL_SLOPE 2.19, PBLUC_R_SQUARED 0.923, read-out: LUCIFERASE INFECTION ASSAY - IC50): 0.659 µM

Row | Compound | IC90 [µM] | IC50 [1] [µM] | further results
23 | Cc1c(C(=O)C(F)(F)F)c(-c2nn(-c3ccccc3)c(NC(=O)C(F)(F)F)c2C(=O)C(F)(F)F)c(C)n1-c1ccc(F)cc1 | > 10 |  | IC50 (FFLUC_HILL_SLOPE 13.3, FFLUC_R_SQUARED 0.772, PBLUC_HILL_SLOPE 3.36, PBLUC_R_SQUARED 0.0987, read-out: LUCIFERASE INFECTION ASSAY - IC50): 8.23 µM
24 | Cc1cc(CNC(C)c2cc(F)c(Cl)cc2Cl)cc(C)c1O (stereo not drawn) | > 10 | > 10 | 
25 | CC(=O)Nc1ccc(S(=O)(=O)Oc2ccc(C)cc2[N+](=O)[O-])cc1 | > 9.42 | > 9.42 | 
26 | Clc1ccc(SCc2cc(N3CCOCC3)nc(-c3ccccn3)n2)cc1 | 4.86 | 4.81 | 
27 | Cc1ccc(C(=O)Nc2nc3ccccn3c2C(=O)NC(C)C)cc1 | > 9.81 |  | IC50 (PBLUC_HILL_SLOPE 15.2, PBLUC_R_SQUARED 0.478, read-out: LUCIFERASE INFECTION ASSAY - IC50): 8.52 µM
28 | O=C(c1ccc(Sc2ccccc2)c([N+](=O)[O-])c1)N(Cc1ccc2c(c1)OCO2)c1ccc(F)cc1 | > 6.57 | > 6.57 | 
29 | Nn1c(SC2CCCCC2=O)nnc1C1CCCCC1 (stereo not drawn) | > 10 | > 10 | 
30 | OC(CNCCc1ccc(Cl)cc1Cl)COc1ccccc1 (stereo not drawn) | > 10 | > 10 | 
31 | COc1ccccc1-n1nnnc1SCC(O)Cn1c2ccccc2c2ccccc21 (stereo not drawn) | > 10 |  | IC50 (FFLUC_HILL_SLOPE 2.23, FFLUC_R_SQUARED 0.596, PBLUC_HILL_SLOPE 13.3, PBLUC_R_SQUARED 0.223, read-out: LUCIFERASE INFECTION ASSAY - IC50): 9.95 µM
32 | CCc1ccc(C2NC(=O)NC(C)=C2C(=O)c2ccccc2)cc1 (stereo not drawn) | > 10 | > 10 | 
33 | CN(C)c1cccc(-c2cnc3sc(NCc4ccccc4)nn23)c1 | 3.57 |  | IC50 (PBLUC_HILL_SLOPE 15, PBLUC_R_SQUARED 0.389, read-out: LUCIFERASE INFECTION ASSAY - IC50): 3.08 µM
34 | FC(F)(F)c1cccnc1N1CCN(c2ccc(NC(=S)NCc3ccccc3)cn2)CC1 | > 6.98 | > 6.98 | 
35 | Cn1ccc2cc(-c3cn4c(-c5ccncc5)cnc4cn3)ccc21 | > 10.1 | > 10.1 | 
36 | Cc1cccn2cc(CN3CCC(c4nc5ccccc5s4)CC3)nc12 | 3.59 |  | IC50 (PBLUC_HILL_SLOPE 8.96, 1.52, PBLUC_R_SQUARED 0.442, 0.954, read-out: LUCIFERASE INFECTION ASSAY - IC50): 2.59 µM
37 | COc1cccc(CN(C)S(=O)(=O)NC2CCC(C)CC2)c1 (stereo not drawn) | > 10 |  | IC50 (HEPG2TOX_HILL_SLOPE 1.57, HEPG2TOX_R_SQUARED 0.723, PBLUC_HILL_SLOPE 2.26, PBLUC_R_SQUARED 0.44, read-out: LUCIFERASE INFECTION ASSAY - IC50): 7.19 µM
38 | CCNC(=O)C1CCCN(Cc2ccc3ccccc3c2Br)CC1 (stereo not drawn) | 3.91 |  | IC50 (PBLUC_HILL_SLOPE 11.4, PBLUC_R_SQUARED 0.606, read-out: LUCIFERASE INFECTION ASSAY - IC50): 3.23 µM
39 | CC(C)(C)c1nnc(Sc2ncc([N+](=O)[O-])s2)[nH]1 | 11.3 |  | IC50 (FFLUC_HILL_SLOPE 12.8, FFLUC_R_SQUARED 0.253, HEPG2TOX_HILL_SLOPE 7.13, HEPG2TOX_R_SQUARED 0.706, PBLUC_HILL_SLOPE 14.6, PBLUC_R_SQUARED 0.134, read-out: LUCIFERASE INFECTION ASSAY - IC50): 9.74 µM
40 | Cc1ccc(C)c(-n2nnnc2SCC(=O)Nc2nc(-c3ccccn3)cs2)c1 | > 10 |  | IC50 (PBLUC_HILL_SLOPE 1.88, PBLUC_R_SQUARED 0.631, read-out: LUCIFERASE INFECTION ASSAY - IC50): 5.63 µM
41 | COC(=O)c1c(OC)ccc(NC(=O)NC(=O)c2c(OC)c(Cl)cc(Cl)c2OC)c1OC | 2.63 |  | IC50 (HEPG2TOX_HILL_SLOPE 2.83, HEPG2TOX_R_SQUARED 0.683, PBLUC_HILL_SLOPE 11.5, PBLUC_R_SQUARED 0.299, read-out: LUCIFERASE INFECTION ASSAY - IC50): 2.18 µM
42 | N#Cc1ccc(Cl)cc1/N=C/C(Br)=C/c1ccccc1 | > 10 | > 10 | 
43 | Cc1nc(N2N=C3/C(=C/c4ccc(F)cc4)CCCC3C2c2ccc(F)cc2)sc1C(=O)N(C)C (stereo not drawn) | > 10 | > 10 | 
44 | O=C(Cc1csc(-c2ccccc2Cl)n1)NCCCCOc1ccc(F)cc1 | > 10 |  | IC50 (HEPG2TOX_HILL_SLOPE 9.37, HEPG2TOX_R_SQUARED 0.776, PBLUC_HILL_SLOPE 2.48, PBLUC_R_SQUARED 0.584, read-out: LUCIFERASE INFECTION ASSAY - IC50): 5.48 µM
